Measured values taken from patent US11234992B2, “Methods and therapies for treating atherosclerosis and/or hyperlipidemia using oligosaccharides” (The Regents of the University of California, priority 2018, dated 2022).
≈ marks a conversion by molar mass, not a printed value. Entries after “also recorded” stand apart in the source; their conditions may differ.

Assays:
[1] = test system: mouse macrophage cell line (RAW246); assay: LPS-induced M1 polarization and cytokine expression in mouse macrophage cell line; format: cell-based; conditions: preliminary results
Protocol: (§1) In particular, pooled HMOs (˜100 μg/mL) attenuated LPS-induced M1 polarization and importantly its subsequent cytokine expression (IL-1β, IL-6, etc. mRNA and protein levels) in a mouse macrophage cell line (RAW246) and in primary bone marrow derived macrophages (BMDM). […] Moreover, the attenuation effects remain when cells are stimulated with LipidA instead of LPS, excluding carbohydrate-carbohydrate interactions between LPS and HMOs above the cell surface.
(§2) Here, the aim is to test whether the results translate to in vivo efficacy in a short-term and a long-term disease model of chronic inflammation. Rheumatoid arthritis (RA) is an inflammatory disorder that affects approximately 1% of the adult population worldwide. It is characterized by systemic and local inflammation that leads to cartilage and bone destruction. Collagen antibody-induced arthritis (CAIA) is a simple RA mouse model that can be used to address questions of pathogenic mechanisms and to screen candidate therapeutic agents. Arthritis is induced by the systemic administration of a cocktail of monoclonal antibodies that target various regions of collagen type II, which is one of the major constituents of articular cartilage matrix proteins, together with LPS. […]

[2] = test system: primary bone marrow derived macrophages (BMDM); assay: LPS-induced M1 polarization and cytokine expression in primary bone marrow derived macrophages; format: cell-based; conditions: primary mouse cells; preliminary results
Protocol: as §1, §2

IL-6 = assay: Attenuation of IL-6 cytokine expression (IC50); format: cell-based
Protocol: as §1

IL-1β = assay: Attenuation of IL-1β cytokine expression (IC50); format: cell-based; conditions: cell type not given
Protocol: as §1

MAPK pathway = assay: Downstream signalling in BMDM, MAPK pathway; format: cell-based, mouse; conditions: in the absence and presence of LPS
Protocol: as §1
To elucidate the receptor, signaling pathway and downstream transcription regulated by 3′SL in BMDM, a three-prong approach is utilized: (a) Whole Transcriptome Shotgun Sequencing (WTSS) is used to identify differentially regulated genes. […] In both approaches, naive BMDM is compared with 3′SL-treated BMDM as well LPS-stimulated BMDM and LPS-treated BMDM co-treated with 3′SL; and (c) A 3′SL affinity matrix is generated to run macrophage plasma membrane and isolate 3′SL binding proteins. Proteins are eluted from the matrix using different salt gradients and analyzed by silvers staining. Relevant elution fraction and individual protein bands are isolated and prepared for mass-spectrometry analysis. The above three-way approach allows for the identification of the receptor, signaling pathway and downstream transcription that is regulated by 3′SL. […]

[3] = test system: LPS-activated Thp-1 cells (human cell line); assay: Cytokine expression in LPS-activated Thp-1 cells; format: cell-based
[4] = test system: mice on a high fat diet (HFD); assay: In vivo atherosclerosis/hyperlipidemia mouse model on high fat diet; conditions: for inflammation in the liver, adipose tissue and arterial vessel wall / systemic secretion of pro-inflammatory cytokines like IL-1β and IL-6: in vitro and in vivo studies
Protocol: FIG. 1 provides a diagram of a mouse model used to test 3′SL effects on atherosclerosis. In particular, the mice are fed a high fat diet for two weeks prior to treatment in order to promote atherosclerosis in the mice. Treatment begins at the end of the second week with 3′SL or vehicle, whereby 3′SL or vehicle are administered to the mice twice daily at a dose of 90 mg/gavage. After 6 weeks of treatment, the mice are sacrificed and atherosclerosis lesions and plaques are assessed.
The complex pathology of atherosclerosis is characterized by the accumulation of lipids, inflammatory cells, and fibrous elements in large- and medium-sized arteries. According to the “response-to-retention” model, focal infiltration and retention of apolipoprotein B (apoB)-containing lipoproteins, such as low-density lipoproteins (LDLs), lipoprotein (a), and triglyceride-rich remnant particles (TRLs), in the subendothelial matrix of the tunica intima of arteries at atherosclerosis-prone sites initiates atherogenesis. Subsequent oxidation, lipolysis, proteolysis, and further aggregation of trapped LDL particles contribute to a chronic inflammatory response characterized by monocyte and T cell migration into the intima. Monocytes entering the plaque differentiate into macrophages and the expression of scavenger receptors result in internalization of modified lipoprotein particles. Lesion macrophages proliferate, accumulate massive amounts of cholesterol, and become lipid droplet-loaded “foam cells,” resulting in their retention in the lesion. Atherosclerosis is further characterized by the accumulation of M1-like macrophages and secretion of characteristic cytokines and chemokines. Priming of macrophages is sufficient to promote increased macrophage infiltration and inflammation in aorta, exacerbating atherosclerosis. […] Therefore, we will use Ldlr^−/− mice with a hypercholesterolemic background to study atherosclerosis development, which has several advantages: (1) cholesterol in Ldlr^−/− mice is mainly restricted to LDL particles resembling the situation in humans; (2) because of the minor importance of Ldlr in bone marrow derived cells related to atherosclerosis, the Ldlr^−/− mice are a very suitable model to study the role of candidate genes in these cells; (3) initiation of atherosclerotic plaque development can be highly controlled, as atherosclerosis will develop only upon feeding a high-fat/high-cholesterol diet.
Atherogenesis is determined by “en face” preparation of the entire aorta and Sudan IV staining to determine lipid infiltration as a measure for lesion surface as described in Gordts et al. (Arterioscler Thromb Vasc Biol. 29:1258-64 (2009)). In addition, the heart is isolated for sectioning of the aortic root to determine aortic root lesion area and qualitative assessment of the plaque phenotype. Aortic root cross-sectional atherosclerosis is measured by cutting 10 μm paraffin sections starting at the aortic valve plane and covering 1,000 μm in 100-μm increments. Two approaches are used to assess if 3′SL administration affects plaque stability and inflammatory cell composition in atherosclerotic plaques. Sections are immunostained using various antibodies to identify smooth muscle cells and macrophages and apoB content as well as the presence of oxidation-specific antibodies reflective of OxLDL. The extracellular content is visualized via staining using Oil red O (lipids), Hematoxylin and Eosin (necrotic core), Movat Pentachrome (proteoglycans), Masson-Goldner (collagen) and Verhoeffs van Gieson (elastin) staining protocols. As a measurement of the clinically relevant plaque vulnerability/stability in advanced lesions, fibrous cap thickness is determined by comparing serial sections each stained for smooth muscle cells and collagens, and the extent of necrosis will be quantified using imaging techniques as described in Gordts P L et al. (Cell Metabolism 20:813-26 (2014)). […]

[5] = summary statement, lipid metabolism

Row | SMILES | LPS-induced M1 polarization and subsequent cytokine expression (IL-1b, IL-6, etc. mRNA and protein levels) [1] | LPS-induced M1 polarization and subsequent cytokine expression (IL-1b, IL-6, etc. mRNA and protein levels) [2] | IC50 (IL-6; cell type not given) [µg/mL] | IC50 (IL-1β) [µg/mL] | down-stream activation of the MAPK pathway (MAPK pathway) | cytokine expression ([3]; LPS-activated Thp-1 cells) | LPS-induced M1 polarization and subsequent cytokine expression (IL-1b, IL-6, etc. mRNA and protein levels) ([3]; human cell line, preliminary results) | plasma triglycerides (TG) levels ([4]; mice on high fat diet, 3′SL twice daily 90 mg/gavage for 6 weeks vs vehicle, FIG. 2A) | cholesterol levels ([4]; mice on high fat diet, 3′SL twice daily 90 mg/gavage for 6 weeks vs vehicle, FIG. 2B) | lesion area of atherosclerotic lesions (En Face) ([4]; mice on high fat diet, 3′SL twice daily 90 mg/gavage for 6 weeks vs vehicle, FIG. 3A) | aortic plaque size ([4]; mice on high fat diet, 3′SL twice daily 90 mg/gavage for 6 weeks vs vehicle, FIG. 3B) | inflammation in the liver, adipose tissue and arterial vessel wall ([4]; summary statement) | systemic secretion of pro-inflammatory cytokines like IL-1β and IL-6 ([4]; summary statement) | lipase activity [4, 5] | postprandial lipid clearance [4, 5] | therapeutic effect (IL-6; test not specified, stated directly after the 3′SL cytokine IC50 values)
1 | CC(=O)NC1C(O)CC(OC2C(O)C(CO)OC(OC(C(O)CO)C(O)C(O)C=O)C2O)(C(=O)O)OC1C(O)C(O)CO (stereo not drawn) [3′SL, 3′-sialyllactose] | attenuates | attenuates | ~16.5 (≈ 26 µM) | ~44.4 (≈ 70.1 µM) | regulate down-stream activation | effectively reduced | attenuates | lower plasma triglyceride levels; also recorded: significant decrease | lower cholesterol levels; also recorded: significant decrease | smaller lesion areas; also recorded: significantly reduced in size | smaller sized plaques; also recorded: significantly reduced | attenuate | suppresses | promoting | promoting | –
2 | CC(=O)N[C@H]1[C@H]([C@H](O)[C@H](O)CO)O[C@@](OC[C@H]2O[C@@H](O[C@H]3[C@H](O)[C@@H](O)[C@H](O)O[C@@H]3CO)[C@H](O)[C@@H](O)[C@H]2O)(C(=O)O)C[C@@H]1O [6′SL, 6′-sialyllactose] | – | – | – | – | – | – | – | – | – | – | – | attenuate | suppresses | – | – | therapeutic effect
